Assays:
Experiment in all cases: DSF thermal shift
Type in all cases: binding
Conditions in all cases: 10 µM inhibitor; read-out: Tm shift
PIM3 = target: T1, PIM3 (Homo sapiens, UniProt Q86V86)
T1 construct: purchased Nanosyn (enzymatic panel); SGC in-house recombinant human kinases (DSF panel); Invitrogen (ALK1-6)
Protocol: (§1) Thermal melting experiments were performed using a Real Time PCR machine Mx3005p (Stratagene) with a protein concentration of 1–2 µM and 10 µM inhibitor as described previously, [25]. […] Recombinant human kinases for DSF screening were prepared by SGC using published methods, [36].

ALK4 = target: T2, ALK4 (Homo sapiens, UniProt P36896)
T2 construct: purchased Invitrogen
T2 sequence (P36896 24-505): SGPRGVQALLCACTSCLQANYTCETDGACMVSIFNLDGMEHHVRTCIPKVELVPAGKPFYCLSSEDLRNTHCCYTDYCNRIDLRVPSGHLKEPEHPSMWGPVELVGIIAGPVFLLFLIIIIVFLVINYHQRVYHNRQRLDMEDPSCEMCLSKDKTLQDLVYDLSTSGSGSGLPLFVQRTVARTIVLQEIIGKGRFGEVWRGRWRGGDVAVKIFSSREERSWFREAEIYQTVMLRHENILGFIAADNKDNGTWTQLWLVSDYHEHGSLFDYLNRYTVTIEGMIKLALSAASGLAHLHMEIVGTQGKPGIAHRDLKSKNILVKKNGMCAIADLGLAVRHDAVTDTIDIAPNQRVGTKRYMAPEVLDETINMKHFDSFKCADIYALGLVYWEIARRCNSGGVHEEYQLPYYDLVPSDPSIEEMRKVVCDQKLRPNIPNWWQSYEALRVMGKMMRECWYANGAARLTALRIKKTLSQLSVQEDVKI
Protocol: as §1

ActRIIA = target: T3, ActRIIA (Homo sapiens, UniProt P27037)
T3 construct: purchased Nanosyn (enzymatic panel); SGC in-house recombinant human kinases (DSF panel); Invitrogen (ALK1-6)
Protocol: as §1

MST3 = target: T4, MST3 (Homo sapiens, UniProt Q9Y6E0)
T4 construct: purchased Nanosyn (enzymatic panel); SGC in-house recombinant human kinases (DSF panel); Invitrogen (ALK1-6)
Protocol: as §1

GRK1 = target: T5, GRK1 (Homo sapiens, UniProt Q15835)
T5 construct: purchased Nanosyn (enzymatic panel); SGC in-house recombinant human kinases (DSF panel); Invitrogen (ALK1-6)
T5 sequence (Q15835 1-563): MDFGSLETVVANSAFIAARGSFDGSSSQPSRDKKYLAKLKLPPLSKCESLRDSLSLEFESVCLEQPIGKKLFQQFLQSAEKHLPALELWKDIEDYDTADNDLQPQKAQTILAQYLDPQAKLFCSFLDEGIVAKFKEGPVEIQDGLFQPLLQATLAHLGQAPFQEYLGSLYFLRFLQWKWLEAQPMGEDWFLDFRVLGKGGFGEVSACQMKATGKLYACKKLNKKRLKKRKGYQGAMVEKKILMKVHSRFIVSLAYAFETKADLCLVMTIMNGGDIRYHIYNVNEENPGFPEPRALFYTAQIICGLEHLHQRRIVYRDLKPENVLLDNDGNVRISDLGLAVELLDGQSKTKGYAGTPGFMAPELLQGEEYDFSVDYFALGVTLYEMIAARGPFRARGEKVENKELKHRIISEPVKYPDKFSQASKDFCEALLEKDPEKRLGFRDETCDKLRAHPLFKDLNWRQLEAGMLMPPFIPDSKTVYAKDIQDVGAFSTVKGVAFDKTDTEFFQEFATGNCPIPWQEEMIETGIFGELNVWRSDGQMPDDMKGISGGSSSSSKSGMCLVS
Protocol: as §1

JNK2 = target: T6, JNK2 (Homo sapiens, UniProt P45984)
T6 construct: purchased Nanosyn (enzymatic panel); SGC in-house recombinant human kinases (DSF panel); Invitrogen (ALK1-6)
Protocol: as §1

OSR1 = target: T7, OSR1 (Homo sapiens, UniProt O95747)
T7 construct: purchased Nanosyn (enzymatic panel); SGC in-house recombinant human kinases (DSF panel); Invitrogen (ALK1-6)
Protocol: as §1

PLK4 = target: T8, PLK4 (Homo sapiens, UniProt O00444)
T8 construct: purchased Nanosyn (enzymatic panel); SGC in-house recombinant human kinases (DSF panel); Invitrogen (ALK1-6)
T8 sequence (O00444 1-970): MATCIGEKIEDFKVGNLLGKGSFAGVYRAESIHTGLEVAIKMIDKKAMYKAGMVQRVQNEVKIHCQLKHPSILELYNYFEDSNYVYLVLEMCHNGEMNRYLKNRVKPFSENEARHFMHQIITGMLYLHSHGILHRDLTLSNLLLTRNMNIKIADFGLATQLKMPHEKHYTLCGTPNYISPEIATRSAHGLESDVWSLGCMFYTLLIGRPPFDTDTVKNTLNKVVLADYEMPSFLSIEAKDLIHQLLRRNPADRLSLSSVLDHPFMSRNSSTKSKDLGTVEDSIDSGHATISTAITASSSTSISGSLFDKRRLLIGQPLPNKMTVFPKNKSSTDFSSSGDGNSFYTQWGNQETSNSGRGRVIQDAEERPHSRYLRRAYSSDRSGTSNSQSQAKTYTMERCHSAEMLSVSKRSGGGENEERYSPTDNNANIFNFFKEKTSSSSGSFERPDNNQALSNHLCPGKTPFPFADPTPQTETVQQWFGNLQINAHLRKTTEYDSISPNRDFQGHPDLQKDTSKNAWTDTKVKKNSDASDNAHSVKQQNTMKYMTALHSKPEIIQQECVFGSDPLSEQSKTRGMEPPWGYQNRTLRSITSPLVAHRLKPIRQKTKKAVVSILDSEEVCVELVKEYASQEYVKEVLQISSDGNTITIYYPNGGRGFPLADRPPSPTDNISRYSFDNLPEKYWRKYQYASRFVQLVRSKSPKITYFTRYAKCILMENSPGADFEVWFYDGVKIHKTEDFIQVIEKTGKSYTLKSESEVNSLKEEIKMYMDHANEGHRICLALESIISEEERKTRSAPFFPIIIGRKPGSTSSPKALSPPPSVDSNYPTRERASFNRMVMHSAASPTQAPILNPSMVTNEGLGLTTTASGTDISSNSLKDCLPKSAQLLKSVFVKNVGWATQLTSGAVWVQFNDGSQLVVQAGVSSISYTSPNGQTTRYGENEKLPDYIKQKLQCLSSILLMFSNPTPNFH
Protocol: as §1

PKN1 = target: T9, PKN1 (Homo sapiens, UniProt Q16512)
T9 construct: purchased Nanosyn (enzymatic panel); SGC in-house recombinant human kinases (DSF panel); Invitrogen (ALK1-6)
Protocol: as §1

PIM1 = target: T10, PIM1 (Homo sapiens, UniProt P11309)
T10 construct: purchased Nanosyn (enzymatic panel); SGC in-house recombinant human kinases (DSF panel); Invitrogen (ALK1-6)
Protocol: as §1

p38δ = target: T11, p38δ (Homo sapiens, UniProt O15264)
T11 construct: purchased Nanosyn (enzymatic panel); SGC in-house recombinant human kinases (DSF panel); Invitrogen (ALK1-6)
T11 sequence (O15264 1-365): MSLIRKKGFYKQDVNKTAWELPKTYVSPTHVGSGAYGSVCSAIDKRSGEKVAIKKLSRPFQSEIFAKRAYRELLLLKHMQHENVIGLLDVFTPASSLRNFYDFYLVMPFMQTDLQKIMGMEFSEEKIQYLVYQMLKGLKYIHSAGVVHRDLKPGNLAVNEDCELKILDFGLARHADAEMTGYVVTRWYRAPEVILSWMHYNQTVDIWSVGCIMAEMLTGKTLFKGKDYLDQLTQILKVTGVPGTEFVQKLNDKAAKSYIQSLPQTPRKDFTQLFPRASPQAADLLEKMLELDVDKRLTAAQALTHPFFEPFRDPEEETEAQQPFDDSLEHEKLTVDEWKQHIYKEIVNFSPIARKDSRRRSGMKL
Protocol: as §1

T9 sequence (Q16512 whole entry): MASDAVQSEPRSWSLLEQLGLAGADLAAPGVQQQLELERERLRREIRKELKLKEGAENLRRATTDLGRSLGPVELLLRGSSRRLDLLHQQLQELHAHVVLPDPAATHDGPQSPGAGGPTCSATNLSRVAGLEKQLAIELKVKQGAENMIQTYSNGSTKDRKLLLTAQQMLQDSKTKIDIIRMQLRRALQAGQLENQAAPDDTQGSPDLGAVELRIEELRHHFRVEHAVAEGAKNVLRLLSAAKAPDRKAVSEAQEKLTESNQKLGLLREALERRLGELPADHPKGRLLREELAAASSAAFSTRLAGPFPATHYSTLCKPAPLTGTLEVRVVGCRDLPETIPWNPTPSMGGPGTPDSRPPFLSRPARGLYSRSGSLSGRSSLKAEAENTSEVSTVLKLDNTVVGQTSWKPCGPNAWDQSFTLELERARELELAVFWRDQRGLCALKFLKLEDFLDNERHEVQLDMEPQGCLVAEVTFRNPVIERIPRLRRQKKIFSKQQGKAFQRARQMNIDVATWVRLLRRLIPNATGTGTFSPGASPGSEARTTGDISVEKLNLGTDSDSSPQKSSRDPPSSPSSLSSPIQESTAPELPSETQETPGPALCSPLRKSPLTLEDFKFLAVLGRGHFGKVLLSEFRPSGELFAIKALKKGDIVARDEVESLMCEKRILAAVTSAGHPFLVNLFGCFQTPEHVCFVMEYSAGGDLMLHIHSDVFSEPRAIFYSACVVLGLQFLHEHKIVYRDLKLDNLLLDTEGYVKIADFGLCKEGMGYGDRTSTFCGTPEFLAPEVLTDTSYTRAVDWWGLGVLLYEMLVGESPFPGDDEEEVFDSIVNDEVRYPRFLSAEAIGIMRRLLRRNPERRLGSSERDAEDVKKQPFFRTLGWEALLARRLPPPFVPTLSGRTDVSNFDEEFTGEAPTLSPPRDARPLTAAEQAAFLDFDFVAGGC
T3 sequence (P27037 20-513): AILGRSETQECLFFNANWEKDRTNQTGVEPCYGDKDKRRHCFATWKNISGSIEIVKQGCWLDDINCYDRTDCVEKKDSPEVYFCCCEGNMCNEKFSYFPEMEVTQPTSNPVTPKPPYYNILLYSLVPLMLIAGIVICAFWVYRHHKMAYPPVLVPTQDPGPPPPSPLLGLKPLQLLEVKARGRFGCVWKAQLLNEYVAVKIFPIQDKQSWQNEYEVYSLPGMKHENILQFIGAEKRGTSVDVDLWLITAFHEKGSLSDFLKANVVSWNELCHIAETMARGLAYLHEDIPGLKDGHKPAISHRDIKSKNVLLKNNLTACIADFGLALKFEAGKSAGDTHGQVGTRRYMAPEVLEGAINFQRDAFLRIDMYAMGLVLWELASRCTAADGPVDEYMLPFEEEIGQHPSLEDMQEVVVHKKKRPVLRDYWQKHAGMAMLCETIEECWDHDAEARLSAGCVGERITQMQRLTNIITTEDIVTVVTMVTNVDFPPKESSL
T7 sequence (O95747 whole entry): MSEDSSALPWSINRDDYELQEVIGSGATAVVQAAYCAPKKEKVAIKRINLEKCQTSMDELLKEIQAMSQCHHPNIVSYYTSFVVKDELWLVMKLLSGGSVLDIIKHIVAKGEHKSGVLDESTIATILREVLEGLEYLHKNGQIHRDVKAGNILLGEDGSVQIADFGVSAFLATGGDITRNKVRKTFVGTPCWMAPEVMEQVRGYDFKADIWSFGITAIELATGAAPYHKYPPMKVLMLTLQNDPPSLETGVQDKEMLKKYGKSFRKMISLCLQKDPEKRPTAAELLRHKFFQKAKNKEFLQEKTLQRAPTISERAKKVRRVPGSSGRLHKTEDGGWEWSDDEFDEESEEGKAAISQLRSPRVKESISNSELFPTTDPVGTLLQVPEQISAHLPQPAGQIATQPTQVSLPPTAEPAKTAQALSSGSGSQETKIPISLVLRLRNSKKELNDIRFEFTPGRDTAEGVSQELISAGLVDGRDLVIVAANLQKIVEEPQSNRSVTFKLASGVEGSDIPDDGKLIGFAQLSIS
T4 sequence (Q9Y6E0 whole entry): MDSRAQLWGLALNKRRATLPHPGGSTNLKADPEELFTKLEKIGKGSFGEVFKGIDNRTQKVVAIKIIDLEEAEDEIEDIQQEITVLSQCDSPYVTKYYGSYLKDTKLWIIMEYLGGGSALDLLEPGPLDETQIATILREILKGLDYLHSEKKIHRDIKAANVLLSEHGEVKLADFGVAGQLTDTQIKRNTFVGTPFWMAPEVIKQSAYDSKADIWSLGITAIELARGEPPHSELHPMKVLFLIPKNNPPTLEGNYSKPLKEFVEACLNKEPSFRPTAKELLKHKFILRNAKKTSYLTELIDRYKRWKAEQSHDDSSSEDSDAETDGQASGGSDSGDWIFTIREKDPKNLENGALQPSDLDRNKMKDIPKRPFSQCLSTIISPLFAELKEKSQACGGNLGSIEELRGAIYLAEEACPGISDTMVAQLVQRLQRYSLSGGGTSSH
T6 sequence (P45984 whole entry): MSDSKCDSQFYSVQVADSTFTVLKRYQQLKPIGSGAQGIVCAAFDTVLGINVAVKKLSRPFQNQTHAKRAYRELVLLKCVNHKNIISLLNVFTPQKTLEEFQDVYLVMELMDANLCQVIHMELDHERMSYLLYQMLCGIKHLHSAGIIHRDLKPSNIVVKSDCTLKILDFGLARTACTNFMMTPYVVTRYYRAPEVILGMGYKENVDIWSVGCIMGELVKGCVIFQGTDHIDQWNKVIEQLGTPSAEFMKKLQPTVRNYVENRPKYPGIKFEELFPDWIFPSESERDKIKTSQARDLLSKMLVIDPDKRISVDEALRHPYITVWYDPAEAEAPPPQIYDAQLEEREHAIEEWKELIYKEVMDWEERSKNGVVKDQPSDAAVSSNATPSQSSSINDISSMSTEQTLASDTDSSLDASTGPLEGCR
T10 sequence (P11309 whole entry): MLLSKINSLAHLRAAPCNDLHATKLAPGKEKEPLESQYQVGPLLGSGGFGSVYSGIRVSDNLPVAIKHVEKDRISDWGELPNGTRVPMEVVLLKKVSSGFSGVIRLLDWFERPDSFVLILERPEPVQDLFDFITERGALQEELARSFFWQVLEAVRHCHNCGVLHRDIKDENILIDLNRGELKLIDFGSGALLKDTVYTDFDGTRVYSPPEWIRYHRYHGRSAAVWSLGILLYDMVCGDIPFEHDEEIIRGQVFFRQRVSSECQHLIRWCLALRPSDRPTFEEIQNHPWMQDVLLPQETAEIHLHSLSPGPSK

ΔTm at 10 µM (PIM3) [°C] | ΔTm at 10 µM (ALK4) [°C] | ΔTm at 10 µM (ActRIIA) [°C] | ΔTm at 10 µM (MST3) [°C] | ΔTm at 10 µM (GRK1) [°C] | ΔTm at 10 µM (JNK2) [°C] | ΔTm at 10 µM (OSR1) [°C] | ΔTm at 10 µM (PLK4) [°C] | ΔTm at 10 µM (PKN1) [°C] | ΔTm at 10 µM (PIM1) [°C] | ΔTm at 10 µM (p38δ) [°C] | SMILES
0.6 | 6.1 | 6.1 | 4.6 | 0.4 | 0.4 | 1.6 | 4.2 | 2.3 | 0.6 | 0 | c1cc(-c2cnn3cc(-c4ccc(OCCN5CCCCC5)cc4)cnc23)ccn1 [Dorsomorphin]
-0.2 | 8.2 | 8.3 | 0.3 | 0 | -0.1 | 0 | 0 | 0.5 | 0.1 | -0.2 | COc1cc(-c2cc(-c3cccc(O)c3)cnc2N)cc(OC)c1OC [K02288, 3-[6-amino-5-(3,4,5-trimethoxy-phenyl)-pyridin-3-yl]-phenol]

SMILES | ΔTm at 10 µM (PIM3) [°C] | ΔTm at 10 µM (ALK4) [°C] | ΔTm at 10 µM (ActRIIA) [°C] | ΔTm at 10 µM (MST3) [°C] | ΔTm at 10 µM (GRK1) [°C] | ΔTm at 10 µM (JNK2) [°C] | ΔTm at 10 µM (OSR1) [°C] | ΔTm at 10 µM (PLK4) [°C] | ΔTm at 10 µM (PKN1) [°C] | ΔTm at 10 µM (PIM1) [°C] | ΔTm at 10 µM (p38δ) [°C]
c1ccc2c(-c3cnn4cc(-c5ccc(N6CCNCC6)cc5)cnc34)ccnc2c1 [LDN-193189] | -0.2 | 11 | 8.6 | 7.9 | -0.7 | -0.6 | 0.9 | 3.7 | 2.3 | 0.5 | -0.4
